Here are results for eight compounds from US20220177477A1 (Central China Normal University, priority 2019, published 2022).

Series [1] addresses T1, TRKC-G623R (Homo sapiens, UniProt Q16288, G623R).
T1 construct: purchased Carna Biosciences
Description: TRK kinase mutant inhibition (HTRF), TRKC-G623R. Format: biochemical.

The target in series [2] is T2, TRKA (Homo sapiens, UniProt P04629).
T2 construct: purchased Carna Biosciences 08-186
Nature of the series: In vitro biochemical HTRF KinEASE kinase inhibition, TRKA. The settings on record: wild-type kinase, final ATP 3.727 μmol/L; read-out: TRKA IC50.

In series [3] the target is T3, TRKA-G667C (Homo sapiens, UniProt P04629, G667C).
T3 construct: purchased Carna Biosciences
Nature of the series: TRK kinase mutant inhibition (HTRF), TRKA-G667C. The class given is biochemical. (In TR-FRET formats the signal depends on donor and acceptor labels being close together.)

Series [4] deals with T4, TRKC (Homo sapiens, UniProt Q16288).
T4 construct: purchased Carna Biosciences 08-197
Description: In vitro biochemical HTRF KinEASE kinase inhibition, TRKC. The settings on record: wild-type kinase, final ATP 2.526 μmol/L.

Series [5] can be described thus: Drug metabolism study in rats, oral administration. The settings on record: rat; for CL / Vz: oral 5 mg/kg; for AUC(0-t) / Cmax / MRT last / Tmax / bioavailability / half-life: plasma, po, 5 mg/kg.
Series [6] can be described thus: Drug metabolism study in rats, intravenous administration. The settings on record: rat, plasma, iv, 1 mg/kg.
Series [7] concerns the target T5, TRKC-G696A (Homo sapiens, UniProt Q16288, G696A).
T5 construct: purchased Carna Biosciences
Nature of the series: TRK kinase mutant inhibition (HTRF), TRKC-G696A. Format: biochemical.

Series [8] addresses T6, TRKA-G595R (Homo sapiens, UniProt P04629, G595R).
T6 construct: purchased Carna Biosciences
Nature of the series: TRK kinase mutant inhibition (HTRF), TRKA-G595R. Format: biochemical.

The target of series [9] is T7, TRKA-F589L (Homo sapiens, UniProt P04629, F589L).
T7 construct: purchased Carna Biosciences
Nature of the series: TRK kinase mutant inhibition (HTRF), TRKA-F589L. The class given is biochemical.

The target in series [10] is T8, TRKB (Homo sapiens, UniProt Q16620).
T8 construct: purchased Carna Biosciences 08-187
Description: In vitro biochemical HTRF KinEASE kinase inhibition, TRKB. The settings on record: wild-type kinase, final ATP 2.56 μmol/L. How it is done:
The material and the method are as follows: wild-type kinases such as TRKA, TRKB and TRKC, and mutant kinases such as TRKA-G595R, TRKA-G667C, TRKA-F589L, TRKC-G623R and TRKC-G696A, and are derived from Carna Biosciences 08-186, 08-187, 08-197; HTRF KinEASE TKkit (Cisbio 62TKO PEC); 384 well plates (Greiner corporation); ATP (Life technologies PV 3227), MgCl2 (sigma); PHERAstar FS Multifunctional microplate reader (BMG Co.); low speed centrifuge (StaiteXiangyi corporation); incubator (Binder company).
Preparing a compound working solution: the dispensed compounds were removed from the freezer prior to testing and diluted to 100× concentration with pure DMSO; then the compound was diluted to the desired concentration of 4× with deionized water;
Preparation of 1.33× enzyme buffer (enzyme buffer): 5× enzyme buffer (from HTRF kit) was diluted to 1.33× with deionized water and the corresponding ingredients were added at a final concentration of 1.33×: 1.33 mmol/L Dithiothreitol (DTT), 1.33 mmol/L MnCl2, 6.65 mmol/L MgCl2 and 39.9 nmol/L SEB;
Preparation of a kinase working solution: TRKA, TRKB and TRKC were diluted with 1.33× enzyme buffer to the required concentrations of 2× of 0.404 ng/μL, 0.304 ng/μL and 0.236 ng/μL, respectively;
Preparing a substrate working solution: a mixture of TK Substrate Blr diluted to the desired final concentration of 4× (from HTRF kit) and ATP (10 mM) with 1.33× enzyme buffer; the final ATP concentrations for TRKA, TRKB, and TRKC were: 3.727 μmol/L, 2.56 μmol/L and 2.526 μmol/L. The TK Substrate-biotin (from HTRF KinEASE TKkit) final concentrations were all: 0.2 μmol/L.
Preparing a detection working solution: 16.67 μmol/L of Streptavidin-XL665 (Streptavidin-XL 665) were diluted to the desired final concentration of 4× with HTRF test buffer and then mixed with an equal volume of Antibody-europium Cryptate (Antibody-Cryptate) (both from HTRF kits).
An enzyme reaction step: add 4 μL of kinase working solution to each well of a low volume 384 microwell plate along with 4 μL of 1.33× enzyme buffer as a Negative control (Negative); add 2 μl of compound working solution to the wells, while adding 2 μl of […] aqueous solution as a zero compound concentration control (i.e., Positive control, Positive); incubating at 25° C. for 5 min; add 2 μL of substrate working solution to the wells to start the enzymatic reaction, shake the reaction for 30 min at 37° C.
HTRF reagent detection step: adding […] to the hole to terminate the reaction; reacting for 1 h at 25° C.;
Reading of HTRF signal: the PHERAstar FS reading is adopted to detect signals, and the corresponding setting of the instrument is as follows:
For the raw data read out per well, the ratio=665 nm/620 nm;
Calculation of inhibition rate:
Calculation of IC50 values: with the logarithm of the compound concentration as abscissa and the inhibition as ordinate, a non-linear curve was fitted in GraphPad Prism 5: log (inhibitor) vs. response—Variable slope, and calculating the concentration of the compound to be detected, namely IC50, when the enzyme activity inhibition rate is 50%.

Bounds are passed on as bounds.

T4 sequence (Q16288 32-825 isoform Q16288-3 limits assumed): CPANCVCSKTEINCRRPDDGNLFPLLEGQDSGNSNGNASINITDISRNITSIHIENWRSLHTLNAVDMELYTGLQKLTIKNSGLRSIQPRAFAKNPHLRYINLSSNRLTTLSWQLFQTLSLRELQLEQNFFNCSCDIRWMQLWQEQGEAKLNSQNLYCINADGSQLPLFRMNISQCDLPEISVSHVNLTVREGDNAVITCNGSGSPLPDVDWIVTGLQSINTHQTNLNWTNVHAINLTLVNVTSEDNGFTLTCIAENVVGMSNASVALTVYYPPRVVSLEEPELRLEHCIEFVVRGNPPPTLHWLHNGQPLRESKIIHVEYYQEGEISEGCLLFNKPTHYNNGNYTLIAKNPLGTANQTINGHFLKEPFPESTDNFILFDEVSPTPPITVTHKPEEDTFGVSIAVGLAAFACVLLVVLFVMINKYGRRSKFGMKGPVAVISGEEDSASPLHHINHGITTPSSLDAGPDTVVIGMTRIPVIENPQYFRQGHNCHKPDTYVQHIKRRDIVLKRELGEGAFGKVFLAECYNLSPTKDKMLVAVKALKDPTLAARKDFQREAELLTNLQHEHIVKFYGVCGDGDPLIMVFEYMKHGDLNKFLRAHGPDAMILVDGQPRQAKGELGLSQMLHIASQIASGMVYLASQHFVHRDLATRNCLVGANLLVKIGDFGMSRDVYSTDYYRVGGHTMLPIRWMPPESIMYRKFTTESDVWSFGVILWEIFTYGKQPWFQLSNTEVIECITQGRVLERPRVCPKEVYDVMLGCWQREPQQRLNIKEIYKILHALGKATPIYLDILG
T7 sequence (P04629 33-796 F589L): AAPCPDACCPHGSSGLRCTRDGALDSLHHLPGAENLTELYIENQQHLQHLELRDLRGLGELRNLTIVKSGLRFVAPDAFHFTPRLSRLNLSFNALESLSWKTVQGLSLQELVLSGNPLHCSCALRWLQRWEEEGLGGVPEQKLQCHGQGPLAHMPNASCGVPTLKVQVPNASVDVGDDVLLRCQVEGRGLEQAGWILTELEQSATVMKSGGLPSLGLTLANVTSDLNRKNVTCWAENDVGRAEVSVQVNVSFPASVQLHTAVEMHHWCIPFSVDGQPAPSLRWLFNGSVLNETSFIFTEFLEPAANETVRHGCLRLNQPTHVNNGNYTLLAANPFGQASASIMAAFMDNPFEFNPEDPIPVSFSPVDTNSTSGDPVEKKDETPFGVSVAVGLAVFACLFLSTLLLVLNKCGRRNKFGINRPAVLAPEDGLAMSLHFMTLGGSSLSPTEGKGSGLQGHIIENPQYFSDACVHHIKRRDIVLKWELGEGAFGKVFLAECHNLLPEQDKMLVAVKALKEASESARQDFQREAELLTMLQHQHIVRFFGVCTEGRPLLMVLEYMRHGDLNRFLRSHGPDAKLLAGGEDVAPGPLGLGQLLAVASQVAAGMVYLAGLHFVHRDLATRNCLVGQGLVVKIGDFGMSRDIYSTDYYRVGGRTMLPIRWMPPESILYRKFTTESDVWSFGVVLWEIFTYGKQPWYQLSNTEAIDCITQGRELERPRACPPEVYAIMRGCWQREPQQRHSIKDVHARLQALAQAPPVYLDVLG
T2 sequence (P04629 33-796): as the sequence (P04629 33-796 F589L) above, with L557F counted along it
T3 sequence (P04629 33-796 G667C): as the sequence (P04629 33-796 F589L) above, with L557F, G635C counted along it
T5 sequence (Q16288 32-839 G696A): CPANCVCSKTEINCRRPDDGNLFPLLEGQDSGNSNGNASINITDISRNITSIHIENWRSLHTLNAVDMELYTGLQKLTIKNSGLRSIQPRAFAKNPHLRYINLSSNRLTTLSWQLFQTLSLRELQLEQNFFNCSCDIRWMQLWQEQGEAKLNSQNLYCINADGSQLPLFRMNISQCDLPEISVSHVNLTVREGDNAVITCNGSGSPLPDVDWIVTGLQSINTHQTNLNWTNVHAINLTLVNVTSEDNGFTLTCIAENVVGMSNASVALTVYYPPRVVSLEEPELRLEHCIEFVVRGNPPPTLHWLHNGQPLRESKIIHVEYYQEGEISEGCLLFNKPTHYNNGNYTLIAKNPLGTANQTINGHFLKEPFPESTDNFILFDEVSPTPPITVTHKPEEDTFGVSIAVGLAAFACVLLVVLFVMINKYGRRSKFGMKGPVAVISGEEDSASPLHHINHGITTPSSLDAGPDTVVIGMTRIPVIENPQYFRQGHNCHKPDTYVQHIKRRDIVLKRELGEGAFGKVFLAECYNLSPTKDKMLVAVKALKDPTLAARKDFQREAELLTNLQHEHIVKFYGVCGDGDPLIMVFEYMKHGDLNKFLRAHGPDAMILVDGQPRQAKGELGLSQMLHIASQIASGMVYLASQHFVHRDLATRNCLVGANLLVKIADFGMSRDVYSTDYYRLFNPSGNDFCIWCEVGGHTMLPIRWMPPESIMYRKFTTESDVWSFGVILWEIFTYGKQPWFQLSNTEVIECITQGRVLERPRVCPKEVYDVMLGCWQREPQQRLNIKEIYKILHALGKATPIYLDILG
T6 sequence (P04629 33-796 G595R): as the sequence (P04629 33-796 F589L) above, with L557F, G563R counted along it
T1 sequence (Q16288 32-839 G623R): as the sequence (Q16288 32-839 G696A) above, with G592R, A665G counted along it
T8 sequence (Q16620 32-822): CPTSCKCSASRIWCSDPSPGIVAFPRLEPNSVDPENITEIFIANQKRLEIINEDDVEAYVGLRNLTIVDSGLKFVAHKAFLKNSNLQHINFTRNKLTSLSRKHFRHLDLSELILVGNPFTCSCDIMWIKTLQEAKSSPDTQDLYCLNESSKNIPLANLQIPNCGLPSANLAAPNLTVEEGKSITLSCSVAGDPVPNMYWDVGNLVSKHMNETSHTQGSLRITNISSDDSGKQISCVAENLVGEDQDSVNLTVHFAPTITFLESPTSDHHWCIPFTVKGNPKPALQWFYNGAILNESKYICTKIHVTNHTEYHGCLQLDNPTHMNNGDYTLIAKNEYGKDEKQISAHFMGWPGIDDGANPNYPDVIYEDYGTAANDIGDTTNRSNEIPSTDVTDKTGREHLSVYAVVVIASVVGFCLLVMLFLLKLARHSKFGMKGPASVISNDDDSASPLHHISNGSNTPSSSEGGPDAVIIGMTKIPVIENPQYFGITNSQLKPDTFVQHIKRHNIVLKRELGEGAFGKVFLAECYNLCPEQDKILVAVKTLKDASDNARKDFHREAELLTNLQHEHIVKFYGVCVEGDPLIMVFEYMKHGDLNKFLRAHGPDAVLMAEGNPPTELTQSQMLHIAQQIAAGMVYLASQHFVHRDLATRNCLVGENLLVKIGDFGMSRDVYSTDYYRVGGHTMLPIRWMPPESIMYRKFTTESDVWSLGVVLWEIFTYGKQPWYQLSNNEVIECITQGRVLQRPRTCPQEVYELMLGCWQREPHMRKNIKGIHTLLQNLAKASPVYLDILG

With `C[C@@H](Nc1ccn2ncc(-c3cn[nH]c3)c2n1)c1cc(F)ccc1OCC(F)F` [Compound 1, (R)-N-(1-(2-(2,2-difluoroethoxy)-5-fluorophenyl)ethyl)-3-(1H-pyrazol-4-yl) pyrazolo [1,5-a] pyrimidin-5-amine], the IC50 (commonly the concentration that inhibits the measured activity by half) in series [1] is 0.45 nM. Also, the 50% inhibitory concentration (IC50) in series [2] is 1.9 nM. Half-maximal inhibition in series [3] (IC50) required 1.76 nM. Besides, the IC50 in series [4] stood at 3.1 nM. In series [5], the CL stood at 7.57 L/h/kg; the Vz turned out to be 48.49 L/kg; the area under the curve AUC(0-t) – broadly, exposure summed from dosing to a finite time, without extrapolation to infinity – stood at 650 ng·h/mL; the Cmax (commonly the maximum level reached in the sampled fluid or tissue) was 109 ng/mL. In series [5], the MRT last (in general, a mean duration of stay, worked out from the concentration-time curve) was 5.69 h; the Tmax (usually the time from dosing to the highest level) came to 49.8 min; the bioavailability (as a rule, dose-corrected exposure relative to a reference, in per cent) came to 29.9%; the half-life – broadly, how long it takes for the measured level to halve – is 266 min. In series [6], the AUC(0-t) stood at 434 ng·h/mL; the peak level (Cmax) was 260 ng/mL; the mean residence time (MRT last) is 3.62 h; the volume of distribution (Vd) (commonly a proportionality between amount in the body and measured concentration, not a real space) came out at 16.9 L/kg. In series [6], the clearance (as a rule, the rate of elimination divided by the concentration) was 38.5 mL/min/kg and the half-life was 306 min. The compound also gave a concentration for half-maximal inhibition (IC50) in series [7] of 0.76 nM. In series [8], this compound showed an IC50 of 0.84 nM. In addition, the half-inhibitory concentration (IC50) in series [9] is 0.22 nM. The compound further returned an IC50 in series [10] of 1.9 nM.

For `C[C@@H](Nc1ccn2ncc(-c3cnn(C)c3)c2n1)c1cc(F)ccc1OC(F)F` [Compound a4-8], the IC50 in series [1] worked out at 2.9 nM; in [2] it was 2.4 nM; in [3], 3.2 nM; in [4] it was 3.5 nM; in series [7] it was 1.1 nM; in series [8], 1.2 nM. Moreover, the values for the IC50 in series [9] and in series [10] were 0.4 nM and 1.5 nM, respectively.

As to `CC(Nc1ccn2ncc(-c3cnn(C(F)F)c3)c2n1)c1cc(F)ccc1OCCF` (stereo not drawn) [Compound a11-18, 3-(1-(difluoromethyl)-1H-pyrazol-4-yl)-N-(1-(5-fluoro-2-(2-fluoroethoxy)phenyl)ethyl) pyrazolo [1,5-a] pyrimidin-5-amine], the half-maximal inhibitory concentration (IC50) is 0.93 nM in [1]; 10.9 nM in [2]; 1 nM in series [3]; 0.77 nM in series [7]; 1.1 nM in [8]; 0.32 nM in [9].

`C[C@@H](Nc1ccn2ncc(-c3cnn(C)c3)c2n1)c1cc(F)ccc1OCC(F)(F)F` [Compound a23-31, (R)-N-(1-(5-fluoro-2-(2,2,2-trifluoroethoxy)phenyl)ethyl)-3-(1-methyl-1H-pyrazol-4-yl) pyrazolo [1,5-a] pyrimidin-5-amine]: the IC50 is 1.7 nM in [1]; 4 nM in [2]; 1.37 nM in series [3]; 6.1 nM in [4]; 0.88 nM in series [7]; 1.5 nM in [8]. Further, the IC50 in series [9] was determined as 0.38 nM; in series [10], 3 nM.

The compound `C[C@@H](Nc1ccn2ncc(-c3cnn(CCO)c3)c2n1)c1cc(F)ccc1OCC(F)(F)F` [Compound a24-32, (R)-2-(4-(5-((1-(5-fluoro-2-(2,2,2-trifluoroethoxy)phenyl)ethyl)amino)pyrazolo [1,5-a]pyrimidin-3-yl)-1H-pyrazol-1-yl) ethanol] gave an IC50 in [1] of 1.1 nM. For the same compound, in [2], the IC50 came out at 3.1 nM. In series [3], this compound showed an IC50 of 1.39 nM. Also, in series [4], half-maximal inhibition (IC50) was put at 2.9 nM. In [5], this compound came in with a CL of 6.3 L/h/kg, a Vz of 28.2 L/kg, an area under the curve AUC(0-t) of 816 ng·h/mL and a peak concentration (Cmax) of 195 ng/mL. Also, in series [5], the mean residence time MRT last was 3.8 h, the Tmax worked out at 30 min, the bioavailability was 47.6% and the half-life was 192 min. Moreover, in series [6], the AUC(0-t) was 343 ng·h/mL, the Cmax stood at 155 ng/mL, the mean residence time MRT last was determined as 4.29 h and the Vd worked out at 22.8 L/kg. In series [6], this compound gave a clearance of 47.7 mL/min/kg and a half-life of 331 min. Further, the half-inhibitory concentration (IC50) in series [7] amounted to 0.75 nM. This compound had an IC50 in series [8] of 0.94 nM. In addition, in series [9], the IC50 turned out to be 0.44 nM. Besides, in series [10], the IC50 was 1.4 nM.

As for `C[C@@H](Nc1ccn2ncc(-c3cn[nH]c3)c2n1)c1cc(F)ccc1OCCF` [Compound b7-16, (R)-N-(1-(5-fluoro-2-(2-fluoroethoxy)phenyl)ethyl)-3-(1H-pyrazol-4-yl) pyrazolo [1,5-a] pyrimidin-5-amine], the half-inhibitory concentration (IC50) is 0.93 nM in series [1]; 2.5 nM in series [2]; 1 nM in series [3]; 3 nM in series [4]; 0.77 nM in series [7]; 1.1 nM in [8]. Besides, the 50% inhibitory concentration (IC50) in series [9] came to 0.32 nM; in series [10], 2.5 nM.

Regarding `CC(Nc1ccn2ncc(-c3cn[nH]c3)c2n1)c1cc(F)cc(OCC(F)F)c1` (stereo not drawn) [Control Compound C, reference compound], the IC50 in series [1], in [2], in series [3], in series [4], in series [7] and in [8] was more than 1000 nM each time. Besides, the concentration for half-maximal inhibition (IC50) in series [9] and in series [10] was more than 1000 nM in each case.

With `CC(Nc1ccn2ncc(-c3cn[nH]c3)c2n1)c1ccc(OCC(F)F)c(F)c1` (stereo not drawn) [Control Compound D, reference compound], the IC50 in series [1], in [2], in series [3], in series [4], in series [7] and in [8] was more than 1000 nM each time. In addition, the IC50 in [9] and in [10] was more than 1000 nM in each case.
